For this assay, the target named is bovine cardiac myofibrils (full-length cardiac myosin ATPase in the native sarcomere) (Bos taurus (Bovine), UniProt Q9BE39). The experiment in a line: Skinned bovine cardiac myofibril ATPase assay (PK/LDH-coupled). It counts as biochemical. Particulars: Ca2+ activating to 75% of maximal rate; for CDMF75 IC15: concentration giving 15% inhibition; for IC50: read-out: CDMF75 IC50. The gist of the method: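 Triton-skinned bovine left-ventricle myofibrils (1 mg/mL) in PM 12 buffer (12 mM PIPES, 2 mM MgCl2, pH 6.8) with 50 μM ATP, 0.6 mM EGTA and CaCl2 set for 50% or 75% activation. Steady-state ATPase inhibition followed by PK/LDH-coupled NADH oxidation at 340 nm.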

Bounds are passed on as bounds.

Sequence of bovine cardiac myofibrils (full-length cardiac myosin ATPase in the native sarcomere) (Q9BE39 whole entry): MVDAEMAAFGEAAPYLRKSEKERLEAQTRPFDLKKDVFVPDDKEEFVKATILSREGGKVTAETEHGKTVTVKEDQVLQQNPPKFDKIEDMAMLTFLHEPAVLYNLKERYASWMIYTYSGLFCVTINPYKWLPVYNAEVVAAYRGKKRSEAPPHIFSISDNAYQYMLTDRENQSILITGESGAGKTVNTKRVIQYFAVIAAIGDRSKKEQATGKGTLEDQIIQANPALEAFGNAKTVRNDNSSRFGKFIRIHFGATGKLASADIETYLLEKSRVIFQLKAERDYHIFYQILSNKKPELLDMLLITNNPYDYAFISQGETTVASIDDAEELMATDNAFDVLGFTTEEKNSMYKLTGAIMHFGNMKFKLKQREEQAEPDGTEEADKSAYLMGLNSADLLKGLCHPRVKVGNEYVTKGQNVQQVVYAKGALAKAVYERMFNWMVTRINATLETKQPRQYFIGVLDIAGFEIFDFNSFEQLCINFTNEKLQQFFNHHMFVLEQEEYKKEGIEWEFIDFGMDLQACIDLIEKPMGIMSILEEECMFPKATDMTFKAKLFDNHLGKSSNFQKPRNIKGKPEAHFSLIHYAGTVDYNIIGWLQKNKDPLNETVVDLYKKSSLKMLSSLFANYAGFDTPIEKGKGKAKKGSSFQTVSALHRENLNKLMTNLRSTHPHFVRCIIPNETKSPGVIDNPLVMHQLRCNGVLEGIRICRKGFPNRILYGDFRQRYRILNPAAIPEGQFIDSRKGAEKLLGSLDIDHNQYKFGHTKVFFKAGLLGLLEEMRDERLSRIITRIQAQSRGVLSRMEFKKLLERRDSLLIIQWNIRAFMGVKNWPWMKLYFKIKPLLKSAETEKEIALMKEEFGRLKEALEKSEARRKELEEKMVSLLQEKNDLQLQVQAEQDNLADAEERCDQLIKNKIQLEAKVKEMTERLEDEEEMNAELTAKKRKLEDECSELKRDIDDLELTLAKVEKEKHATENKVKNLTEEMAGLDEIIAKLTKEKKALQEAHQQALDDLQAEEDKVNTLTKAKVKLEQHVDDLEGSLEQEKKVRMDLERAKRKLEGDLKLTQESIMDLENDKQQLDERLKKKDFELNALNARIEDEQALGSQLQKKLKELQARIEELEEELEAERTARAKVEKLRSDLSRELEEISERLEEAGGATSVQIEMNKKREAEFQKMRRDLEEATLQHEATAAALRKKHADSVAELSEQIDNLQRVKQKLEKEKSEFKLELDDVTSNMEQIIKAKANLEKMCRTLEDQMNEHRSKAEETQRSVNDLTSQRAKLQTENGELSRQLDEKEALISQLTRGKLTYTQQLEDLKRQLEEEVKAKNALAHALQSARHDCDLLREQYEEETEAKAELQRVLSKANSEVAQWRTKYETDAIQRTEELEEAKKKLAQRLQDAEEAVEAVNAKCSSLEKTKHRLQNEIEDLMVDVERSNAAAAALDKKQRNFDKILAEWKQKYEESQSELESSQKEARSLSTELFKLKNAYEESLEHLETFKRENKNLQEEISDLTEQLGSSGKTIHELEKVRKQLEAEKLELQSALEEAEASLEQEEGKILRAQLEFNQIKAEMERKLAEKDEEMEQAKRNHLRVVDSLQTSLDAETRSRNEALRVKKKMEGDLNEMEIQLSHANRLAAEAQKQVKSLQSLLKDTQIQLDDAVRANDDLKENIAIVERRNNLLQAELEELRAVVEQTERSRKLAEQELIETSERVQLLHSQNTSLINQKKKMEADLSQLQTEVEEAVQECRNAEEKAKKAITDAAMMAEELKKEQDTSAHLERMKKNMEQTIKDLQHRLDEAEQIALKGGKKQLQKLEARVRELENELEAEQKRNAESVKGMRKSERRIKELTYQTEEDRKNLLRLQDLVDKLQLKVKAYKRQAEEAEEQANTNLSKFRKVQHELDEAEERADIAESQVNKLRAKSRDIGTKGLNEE
Sequence of bovine cardiac myofibrils (full-length cardiac myosin ATPase in the native sarcomere) (P85100 whole entry partner): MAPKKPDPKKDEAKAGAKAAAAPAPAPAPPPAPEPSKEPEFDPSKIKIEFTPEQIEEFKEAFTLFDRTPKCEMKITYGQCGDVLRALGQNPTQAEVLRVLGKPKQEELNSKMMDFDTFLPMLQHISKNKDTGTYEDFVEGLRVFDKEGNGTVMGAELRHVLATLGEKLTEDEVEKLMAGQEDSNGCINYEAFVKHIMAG
Sequence of bovine cardiac myofibrils (full-length cardiac myosin ATPase in the native sarcomere) (Q3SZE5 whole entry partner): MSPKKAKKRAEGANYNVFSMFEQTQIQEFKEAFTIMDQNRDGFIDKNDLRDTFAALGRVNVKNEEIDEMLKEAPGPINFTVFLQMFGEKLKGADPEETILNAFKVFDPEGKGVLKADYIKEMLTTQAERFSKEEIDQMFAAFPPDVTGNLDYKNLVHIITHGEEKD

A word on the IC50: it is the midpoint of a concentration-inhibition curve. Turning to `CCc1nc(-c2ccc3c(c2)CC[C@H]3NC(=O)c2cccc(CCO)c2)no1` [Compound 659, (R)-N-(5-(5-ethyl-1,2,4-oxadiazol-3-yl)-2,3-dihydro-1H-inden-1-yl)-3-(2-hydroxyethyl)benzamide], the “CDMF75 IC15” value amounted to 0.5 µM and the half-inhibitory concentration (IC50) was 1.7 µM.
Taken in the same sequence, the figures for `CCc1nc(-c2ccc3c(c2)CC[C@H]3NC(=O)c2cccc(C(=O)OC)c2)no1` [Compound 648, Methyl (R)-3-((5-(5-ethyl-1,2,4-oxadiazol-3-yl)-2,3-dihydro-1H-inden-1-yl)carbamoyl)benzoate] were 0.4 µM and 1.3 µM.
On the same counts, the results for `CCc1nc(-c2ccc3c(c2)CC[C@H]3NC(=O)c2ccnnc2)no1` [Compound 632, (R)-N-(5-(5-ethyl-1,2,4-oxadiazol-3-yl)-2,3-dihydro-1H-inden-1-yl)pyridazine-4-carboxamide] are 0.5 µM and 1.5 µM.
As to `[2H]C([2H])([2H])c1nc(-c2ccc3c(c2)OC[C@H]3NC(=O)c2cnn(C)c2)no1` [Compound 265, (S)-1-methyl-N-(6-(5-(methyl-d3)-1,2,4-oxadiazol-3-yl)-2,3-dihydrobenzofuran-3-yl)-1H-pyrazole-4-carboxamide], the “CDMF75 IC15” value worked out at 1.0 µM and the IC50 stood at 3.4 µM.
On the same counts, the results for `CCc1nc(-c2ccc3c(c2)CC[C@H]3NC(=O)OC2CCCC2)no1` [Compound 325, cyclopentyl (R)-(5-(5-ethyl-1,2,4-oxadiazol-3-yl)-2,3-dihydro-1H-inden-1-yl)carbamate] are 0.5 µM and 1.9 µM.
Take `CCc1cc(-c2ccc3c(c2)CC[C@H]3NC(=O)c2cnn(C)c2)no1` [Compound 413, (R)-N-(5-(5-ethylisoxazol-3-yl)-2,3-dihydro-1H-inden-1-yl)-1-methyl-1H-pyrazole-4-carboxamide]: the “CDMF75 IC15” value is 0.4 µM and the concentration for half-maximal inhibition (IC50) is 1.5 µM.
On the same counts, the results for `CCc1nc(-c2ccc3c(c2)CC[C@H]3NC(=O)c2ccc(=O)[nH]c2)no1` [Compound 603, (R)-N-(5-(5-ethyl-1,2,4-oxadiazol-3-yl)-2,3-dihydro-1H-inden-1-yl)-6-oxo-1,6-dihydropyridine-3-carboxamide] are 0.3 µM and 1 µM.
With `CCc1nc(-c2ccc3c(c2)CC[C@H]3NC(=O)c2ccno2)no1` [Compound 582, (R)-N-(5-(5-ethyl-1,2,4-oxadiazol-3-yl)-2,3-dihydro-1H-inden-1-yl)isoxazole-5-carboxamide], the “CDMF75 IC15” value is 0.4 µM and the half-inhibitory concentration (IC50) amounted to 1.3 µM.
Taken in the same sequence, the figures for `Cc1cc(C(=O)NC2COc3cc(-c4noc(C5CC5)n4)ccc32)n(C)n1` (stereo not shown) [Compound 232, N-(6-(5-cyclopropyl-1,2,4-oxadiazol-3-yl)-2,3-dihydrobenzofuran-3-yl)-1,3-dimethyl-1H-pyrazole-5-carboxamide] were 0.7 µM and 2.4 µM.
Consider `CCc1nc(-c2ccc3c(c2)CC[C@H]3NC(=O)c2cnn(C(C)C(=O)O)c2)no1` (stereo partly drawn) [Compound 531, 2-(4-(((R)-5-(5-ethyl-1,2,4-oxadiazol-3-yl)-2,3-dihydro-1H-inden-1-yl)carbamoyl)-1H-pyrazol-1-yl)propanoic acid], for which the “CDMF75 IC15” value is 4.1 µM and the 50% inhibitory concentration (IC50) was 25.1 µM.
On the same counts, the results for `CC(C)NC(=O)NC1CCc2cc(-c3noc(C(F)F)n3)ccc21` (stereo not shown) [Compound 14, 1-(5-(5-(difluoromethyl)-1,2,4-oxadiazol-3-yl)-2,3-dihydro-1H-inden-1-yl)-3-isopropylurea] are 39.2 µM and > 39.2 µM.
Consider `CCc1nc(-c2ccc3c(c2)CC[C@H]3NC(=O)c2ccnc(OC)c2)no1` [Compound 557, (R)-N-(5-(5-ethyl-1,2,4-oxadiazol-3-yl)-2,3-dihydro-1H-inden-1-yl)-2-methoxyisonicotinamide], for which the “CDMF75 IC15” value stood at 0.4 µM and the IC50 stood at 1.4 µM.
On the same counts, the results for `CCc1nc(-c2ccc3c(c2)CC[C@H]3NC(=O)c2cnn(C3COC3)c2)no1` [Compound 470, (R)-N-(5-(5-ethyl-1,2,4-oxadiazol-3-yl)-2,3-dihydro-1H-inden-1-yl)-1-(oxetan-3-yl)-1H-pyrazole-4-carboxamide] are 4.4 µM and 16.8 µM.
On the same counts, the results for `CC(=O)N1CC[C@@H]1C(=O)N[C@@H]1CCc2cc(-c3noc(C4CC4)n3)ccc21` [Compound 331, (R)-1-acetyl-N-((R)-5-(5-cyclopropyl-1,2,4-oxadiazol-3-yl)-2,3-dihydro-1H-inden-1-yl)azetidine-2-carboxamide] are 20.0 µM and > 39.2 µM.
On the same counts, the results for `CCc1nc(-c2ccc3c(c2)CC[C@H]3NC(=O)c2cnn(CCCO)c2C)no1` [Compound 611, (R)-N-(5-(5-ethyl-1,2,4-oxadiazol-3-yl)-2,3-dihydro-1H-inden-1-yl)-1-(3-hydroxypropyl)-5-methyl-1H-pyrazole-4-carboxamide] are 0.7 µM and 2.5 µM.
Turning to `CCc1nc(-c2ccc3c(c2)CC[C@H]3NC(=O)c2ccc(=O)n(CCOC)c2)no1` [Compound 606, (R)-N-(5-(5-ethyl-1,2,4-oxadiazol-3-yl)-2,3-dihydro-1H-inden-1-yl)-1-(2-methoxyethyl)-6-oxo-1,6-dihydropyridine-3-carboxamide], the “CDMF75 IC15” value is 4.6 µM and the IC50 is 22.6 µM.
As to `Cc1c(C(=O)N[C@@H]2CCc3cc(-c4noc(C5CCC5)n4)ccc32)cnn1C` [Compound 151, (R)-N-(5-(5-cyclobutyl-1,2,4-oxadiazol-3-yl)-2,3-dihydro-1H-inden-1-yl)-1,5-dimethyl-1H-pyrazole-4-carboxamide], the “CDMF75 IC15” value came to 0.5 µM and the concentration for half-maximal inhibition (IC50) was 2 µM.
On the same counts, the results for `Cc1nc(-c2ccc3c(c2)OC[C@H]3NC(=O)c2cc(CO)ccn2)no1` [Compound 718, (S)-4-(hydroxymethyl)-N-(6-(5-methyl-1,2,4-oxadiazol-3-yl)-2,3-dihydrobenzofuran-3-yl)picolinamide] are 1.1 µM and 5.2 µM.
Regarding `Cn1nnc(C(=O)NC2CCc3cc(-c4noc(C(F)F)n4)ccc32)n1` (stereo not shown) [Compound 81, N-(5-(5-(difluoromethyl)-1,2,4-oxadiazol-3-yl)-2,3-dihydro-1H-inden-1-yl)-2-methyl-2H-tetrazole-5-carboxamide], the “CDMF75 IC15” value came to 1.1 µM and the half-inhibitory concentration (IC50) came to 3.7 µM.
Consider `CCc1nc(-c2ccc3c(c2)CC[C@H]3NC(=O)c2cn(CCOC)nc2C)no1` [Compound 596, (R)-N-(5-(5-ethyl-1,2,4-oxadiazol-3-yl)-2,3-dihydro-1H-inden-1-yl)-1-(2-methoxyethyl)-3-methyl-1H-pyrazole-4-carboxamide], for which the “CDMF75 IC15” value was 0.8 µM and the IC50 was 2.5 µM.
In the case of `Cc1nc(-c2ccc3c(c2)CCC3NC(=O)c2oncc2C)no1` (stereo not shown) [Compound 88, 4-methyl-N-(5-(5-methyl-1,2,4-oxadiazol-3-yl)-2,3-dihydro-1H-inden-1-yl)isoxazole-5-carboxamide], the “CDMF75 IC15” value is 0.7 µM and the IC50 came out at 2.5 µM.
Taken in the same sequence, the figures for `Cc1nc(-c2ccc3c(c2)CCC3NC(=O)Nc2cccnc2)no1` (stereo not shown) [Compound 62, 1-(5-(5-methyl-1,2,4-oxadiazol-3-yl)-2,3-dihydro-1H-inden-1-yl)-3-(pyridin-3-yl)urea] were 1.5 µM and 8.7 µM.
Take `CCn1nccc1C(=O)NC1CCc2cc(-c3noc(C)n3)ccc21` (stereo not shown) [Compound 56, 1-ethyl-N-(5-(5-methyl-1,2,4-oxadiazol-3-yl)-2,3-dihydro-1H-inden-1-yl)-1H-pyrazole-5-carboxamide]: the “CDMF75 IC15” value was 2.5 µM and the IC50 was determined as 8.5 µM.
Taken in the same sequence, the figures for `CCc1nc(-c2ccc3c(c2)CC[C@H]3NC(=O)c2cncc(C)c2)no1` [Compound 626, (R)-N-(5-(5-ethyl-1,2,4-oxadiazol-3-yl)-2,3-dihydro-1H-inden-1-yl)-5-methylnicotinamide] were 0.5 µM and 1.6 µM.
As for `CCc1nc(-c2ccc3c(c2)CC[C@H]3NC(=O)c2cn(C)nn2)no1` [Compound 616, (R)-N-(5-(5-ethyl-1,2,4-oxadiazol-3-yl)-2,3-dihydro-1H-inden-1-yl)-1-methyl-1H-1,2,3-triazole-4-carboxamide], the “CDMF75 IC15” value came out at 4.5 µM and the IC50 amounted to 22.9 µM.
On the same counts, the results for `Cc1nn(C)cc1C(=O)N[C@@H]1CCc2cc(-c3noc(C4CC4)n3)ccc21` [Compound 154, (R)-N-(5-(5-cyclopropyl-1,2,4-oxadiazol-3-yl)-2,3-dihydro-1H-inden-1-yl)-1,3-dimethyl-1H-pyrazole-4-carboxamide] are 0.4 µM and 1.5 µM.
Taken in the same sequence, the figures for `Cn1cc(C(=O)N[C@@H]2CCc3cc(-c4noc(CCO)n4)ccc32)cn1` [Compound 552, N-{(1R)-5-[5-(2-hydroxyethyl)(1,2,4-oxadiazol-3-yl)]indanyl}(1-methylpyrazol-4-yl)carboxamide] were 13.7 µM and 39.2 µM.
Taken in the same sequence, the figures for `Cc1nc(-c2ccc3c(c2)CCC3NC(=O)Nc2ncccn2)no1` (stereo not shown) [Compound 110, 1-(5-(5-methyl-1,2,4-oxadiazol-3-yl)-2,3-dihydro-1H-inden-1-yl)-3-(pyrimidin-2-yl)urea] were 39.2 µM and > 39.2 µM.
Take `Cc1ccc(-c2ccc3c(c2)CC[C@H]3NC(=O)c2ccnn2C)cc1` [Compound 374, (R)-1-methyl-N-(5-(p-tolyl)-2,3-dihydro-1H-inden-1-yl)-1H-pyrazole-5-carboxamide]: the “CDMF75 IC15” value was 1.7 µM and the half-maximal inhibitory concentration (IC50) was determined as 6.4 µM.

These data come from patent US12065436B2, “Cardiac sarcomere inhibitors” (Cytokinetics, Inc., priority 2018, dated 2024).
